Assay [1] deals with LPA-induced skin vascular leakage in Balb/c mice. Nature of the assay: mouse LPA-induced skin vascular leakage model. The assay is classed as in vivo. As to conditions: oral administration of 30 mg/kg to mice; extravasated Evans blue per skin disc. How it is done:
Assessment of In Vivo Potency
The in vivo potency of the compounds of Formula (I) can be determined using a mouse LPA-induced skin vascular leakage model. Female Balb/c mice are treated with either vehicle or test compound (e.g. at 30 mg/kg or 100 mg/kg p.o.) for at least 1 h prior to administration of the albumin marker Evans blue (50 mg/kg, i.v., 0.9% NaCl) and subsequent challenge with LPA (5 μg, i.d.). After 30 minutes, mice are sacrificed by CO2 inhalation. Discs of skin from the injection sites are removed, digested in formamide (500 μl, 37° C., 24 hrs) and the content of Evans blue quantified by colorimetric assay. Results are expressed as extravasated Evans blue per skin disc (μg/disc).
As an example, selected compound of the present invention, Ex 21-2, is able to effectively reduce LPA-induced vascular leakage after oral administration of 30 mg/kg to mice as compared to a group of animals treated with vehicle only. Reduction of vascular leakage compared to vehicle group was >60%.

In the next assay the target is T1, human LPA1 receptor (Homo sapiens, UniProt Q92633).
T1 construct: TEV protease site; Gal4-VP16 transcription factor; host or cells: Tango EDG2-bla U2OS cells
T1 sequence (Q92633 whole entry, the tested form may be a part): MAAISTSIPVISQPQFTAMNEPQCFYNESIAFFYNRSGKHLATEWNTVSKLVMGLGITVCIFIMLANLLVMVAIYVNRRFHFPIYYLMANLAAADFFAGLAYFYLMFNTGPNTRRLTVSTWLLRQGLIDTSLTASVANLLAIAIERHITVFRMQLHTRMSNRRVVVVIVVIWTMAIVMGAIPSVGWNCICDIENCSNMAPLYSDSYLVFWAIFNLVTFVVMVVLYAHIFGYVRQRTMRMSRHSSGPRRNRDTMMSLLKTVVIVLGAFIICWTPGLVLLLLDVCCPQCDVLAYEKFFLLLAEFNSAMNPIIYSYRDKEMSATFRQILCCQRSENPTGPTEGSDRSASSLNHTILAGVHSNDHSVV
In words: Beta-arrestin recruitment assay to determine IC50 values for human LPAR1. Type of assay: cell-based. As to conditions: Tango EDG2-bla U2OS cells, antagonist assay, LPA 18:1 500 nM final. A digest of the protocol: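 Tango EDG2-bla U2OS cells were preincubated 30 min at 37 °C with compound. They were then stimulated with 500 nM (final) LPA 18:1 for 16 h. β-Lactamase reporter read by LiveBLAzer FRET substrate (2 h) as the 460/530 nm ratio; IC50 from 4-parameter logistic fit.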
(Arrestin recruitment assays detect the binding of arrestin to an activated receptor.)

Each structure is given as a SMILES string. A value given as a limit tells only on which side of the number the result lay.

Regarding `COc1cc(Cl)ncc1NC(=O)C1(c2ccccc2C(C)C)CN(S(N)(=O)=O)C1` [Example 21-2, N-(6-chloro-4-methoxypyridin-3-yl)-3-(2-isopropylphenyl)-1-sulfamoylazetidine-3-carboxamide], the “Reduction of vascular leakage compared to vehicle group” value in assay [1] is above 60%. In addition, on human LPA1 receptor, the IC50 (in general, the concentration needed to halve the response being measured) is 3 nM.

As for `COc1cc(Cl)ncc1NC(=O)C1(c2ccccc2C(C)C)CN(c2nc(C)ncc2F)C1` [Example 24-16, N-(6-chloro-4-methoxypyridin-3-yl)-1-(5-fluoro-2-methylpyrimidin-4-yl)-3-(2-isopropylphenyl)azetidine-3-carboxamide], the IC50 on human LPA1 receptor came to 13 nM.

As for `COc1cc(Cl)ncc1NC(=O)C1(c2ccccc2C(C)C)CCN(c2ncncc2F)CC1` [Example 24-17, N-(6-chloro-4-methoxypyridin-3-yl)-1-(5-fluoropyrimidin-4-yl)-4-(2-isopropylphenyl)piperidine-4-carboxamide], the IC50 on human LPA1 receptor amounted to 3 nM.

For `COc1cc(Cl)ncc1NC(=O)C1(c2ccccc2C(C)C)CCN(c2nc(C)ncc2F)CC1` [Example 24-18, N-(6-chloro-4-methoxypyridin-3-yl)-1-(5-fluoro-2-methylpyrimidin-4-yl)-4-(2-isopropylphenyl)piperidine-4-carboxamide], the IC50 on human LPA1 receptor is 5 nM.

Consider `COC(=O)c1cnc(N2CC(C(=O)Nc3cnc(Cl)cc3OC)(c3ccccc3C(C)C)C2)cn1` [Example 24-19, methyl 5-(3-((6-chloro-4-methoxypyridin-3-yl)carbamoyl)-3-(2-isopropylphenyl)azetidin-1-yl)pyrazine-2-carboxylate], for which, on human LPA1 receptor, the IC50 came to 9 nM.

Take `COc1cc(Cl)ncc1NC(=O)C1(c2ccccc2C(C)C)CN(c2cnc(C(=O)O)cn2)C1` [Example 24-20, 5-(3-((6-chloro-4-methoxypyridin-3-yl)carbamoyl)-3-(2-isopropylphenyl)azetidin-1-yl)pyrazine-2-carboxylic acid]: on human LPA1 receptor, the IC50 is 145 nM.

As for `COC(=O)c1ccc(N2CC(C(=O)Nc3cnc(Cl)cc3OC)(c3ccccc3C(C)C)C2)nc1` [Example 24-21, methyl 6-(3-((6-chloro-4-methoxypyridin-3-yl)carbamoyl)-3-(2-isopropylphenyl)azetidin-1-yl)nicotinate], on human LPA1 receptor, the IC50 was determined as 12 nM.

Regarding `COC(=O)c1cnc(N2CC(C(=O)Nc3cnc(Cl)cc3OC)(c3ccccc3C(C)C)C2)nc1` [Example 24-22, methyl 2-(3-((6-chloro-4-methoxypyridin-3-yl)carbamoyl)-3-(2-isopropylphenyl)azetidin-1-yl)pyrimidine-5-carboxylate], the 50% inhibitory concentration (IC50) at human LPA1 receptor turned out to be 22 nM.

For `COc1cc(Cl)ncc1NC(=O)C1(c2ccccc2C(C)C)CN(c2ncc(C(=O)O)cn2)C1` [Example 24-23, 2-(3-((6-chloro-4-methoxypyridin-3-yl)carbamoyl)-3-(2-isopropylphenyl)azetidin-1-yl)pyrimidine-5-carboxylic acid], the IC50 on human LPA1 receptor worked out at 3150 nM.

With `COC(=O)c1ccc(N2CC(C(=O)Nc3cnc(Cl)cc3OC)(c3ccccc3C(C)C)C2)nn1` [Example 24-24, methyl 6-(3-((6-chloro-4-methoxypyridin-3-yl)carbamoyl)-3-(2-isopropylphenyl)azetidin-1-yl)pyridazine-3-carboxylate], the IC50 at human LPA1 receptor turned out to be 24 nM.

With `CCOC(=O)c1coc(N2CC(C(=O)Nc3cnc(Cl)cc3OC)(c3ccccc3C(C)C)C2)n1` [Example 24-25, ethyl 2-(3-((6-chloro-4-methoxypyridin-3-yl)carbamoyl)-3-(2-isopropylphenyl)azetidin-1-yl)oxazole-4-carboxylate], the IC50 at human LPA1 receptor came out at 15 nM.

In the case of `COc1cc(Cl)ncc1NC(=O)C1(c2ccccc2C(C)C)CN(c2nc(C(=O)O)co2)C1` [Example 24-26, 2-(3-((6-chloro-4-methoxypyridin-3-yl)carbamoyl)-3-(2-isopropylphenyl)azetidin-1-yl)oxazole-4-carboxylic acid], the IC50 on human LPA1 receptor was found to be 91 nM.

Turning to `COc1cc(Cl)ncc1NC(=O)C1(c2ccccc2C(C)C)CN(c2nnn[nH]2)C1` [Example 25, N-(6-chloro-4-methoxypyridin-3-yl)-3-(2-isopropylphenyl)-1-(1H-tetrazol-5-yl)azetidine-3-carboxamide], at human LPA1 receptor, the IC50 was 270 nM.

Take `COc1cc(Cl)ncc1NC(=O)C1(c2ccccc2C(C)C)CN(C2=NC(=O)CO2)C1` [Example 26, N-(6-chloro-4-methoxypyridin-3-yl)-3-(2-isopropylphenyl)-1-(4-oxo-4,5-dihydrooxazol-2-yl)azetidine-3-carboxamide]: the IC50 at human LPA1 receptor worked out at 12 nM.

`COc1cc(Cl)ncc1NC(=O)C1(c2ccccc2C(C)C)CN(c2c(O)c(=O)c2=O)C1` [Example 27, N-(6-chloro-4-methoxypyridin-3-yl)-1-(2-hydroxy-3,4-dioxocyclobut-1-en-1-yl)-3-(2-isopropylphenyl)azetidine-3-carboxamide]: on human LPA1 receptor, the IC50 amounted to 55 nM.

The values above are taken from patent US12479820B2, “Pyridin-3-yl derivatives” (Idorsia Pharmaceuticals Ltd, priority 2019, dated 2025).
